According to patent publication US20060069132A1, “Azolecarboxamide herbicides” (priority 2004, published 2006):

Experiments:
wheat = test: Test B postemergence herbicide test; assay type: in vivo, Triticum aestivum; design: key to Wheat plant response rating: 0 = no effect, 100 = complete control; details: postemergence
Outline: (§1)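 Formulated test chemicals went onto postemergence plants measuring 2 to 18 cm, at one to four leaves. For the paddy assay, species had reached two leaves. Scoring took place 13–15 days later by eye, relative to untreated plants, using 0 for no effect up to 100 for full control.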

ducksalad = test: Test B flooded paddy test; assay type: in vivo, Heteranthera limosa; details: 1000 g ai/ha, scale 0 to 100 (0 no effect, 100 complete control)
Outline: (§2)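 Plants grow to 1- to 4-leaf stage (2–18 cm) for postemergence spraying, or to 2-leaf stage for the paddy test. Formulated compound is applied. Greenhouse holding lasts 13–15 days. Response is scored visually relative to controls, 0 no effect to 100 complete control; a dash means no result.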

barnyardgrass [1] = test: Test B pre-/postemergence herbicide test; assay type: in vivo, Echinochloa crus-galli; details: for Barnyardgrass plant response rating (0 to 100 scale) / Plant response rating, Barnyardgrass: 0 = no effect, 100 = complete control, preemergence; for Plant response rating, Barnyardgrass / Barnyardgrass plant response rating: visual rating; for Barnyardgrass plant response rating: postemergence, scale 0 (no effect) to 100 (complete control)
Outline: (§3)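 Species tested were Echinochloa crus-galli, Ipomoea coccinea, Xanthium strumarium and Oryza sativa, treated both before emergence and at the 1- to 4-leaf stage; rice and barnyardgrass were also tested under flooding at 2 leaves. Greenhouse incubation lasted 13–15 days before visual 0–100 scoring.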

wild oat = test: Test B postemergence herbicide test; assay type: in vivo, Avena fatua; details: postemergence
Outline: as §1

large crabgrass = test: Test B pre-/postemergence herbicide test; assay type: in vivo, Digitaria sanguinalis; details: for Crabgrass, Large plant response rating (0 to 100 scale) / Plant response rating, Crabgrass, Large: 0 = no effect, 100 = complete control, preemergence; for Crabgrass, Large plant response rating: postemergence
Outline: (§4)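 Evaluation is visual, comparing treated with control plants on a scale where 0 means no effect and 100 means full control. Treatments were preemergence, or postemergence on seedlings 2–18 cm tall, and held 13–15 days in the greenhouse.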

rice [2] = test: Test B pre-/postemergence herbicide test; assay type: in vivo, Oryza sativa; details: 0 = no effect, 100 = complete control, preemergence; for Rice plant response rating (0 to 100 scale): 125 g ai/ha; for Plant response rating, Rice: 500 g ai/ha, visual rating
Outline: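 Plants compared with untreated controls 13–15 days post-treatment and given a visual 0–100 injury score. Applications: preemergence to seeds; postemergence at 1- to 4-leaf (2–18 cm); paddy species flooded, 2-leaf stage. Vehicle non-phytotoxic, surfactant included.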

Surinam grass = test: Test B pre-/postemergence herbicide test; assay type: in vivo, Urochloa decumbens; details: for Surinam Grass plant response rating (0 to 100 scale) / Plant response rating, Surinam Grass: 0 = no effect, 100 = complete control, preemergence; for Surinam Grass plant response rating: postemergence
Outline: as §4

velvetleaf = test: Test B pre-/postemergence herbicide test; assay type: in vivo, Abutilon theophrasti; details: for Velvetleaf plant response rating (0 to 100 scale) / Plant response rating, Velvetleaf: 0 = no effect, 100 = complete control, preemergence; for Velvetleaf plant response rating: postemergence
Outline: as §4

corn = test: Test B pre-/postemergence herbicide test; assay type: in vivo, Zea mays; details: for Corn plant response rating (0 to 100 scale) / Plant response rating, Corn: 0 = no effect, 100 = complete control, preemergence; for Corn plant response rating: postemergence
Outline: as §4

blackgrass = test: Test B postemergence herbicide test; assay type: in vivo, Alopecurus myosuroides; details: postemergence, visual rating, scale 0 (no effect) to 100 (complete control)
Outline: as §2

lambsquarters = test: Test B pre-/postemergence herbicide test; assay type: in vivo, Chenopodium album; details: for Lambsquarters plant response rating: postemergence
Outline: as §4

rice [3] = test: Test B flooded paddy test; assay type: in vivo, Oryza sativa; details: 1000 g ai/ha, scale 0 to 100 (0 no effect, 100 complete control)
Outline: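 Each value is a visual 0–100 response rating taken against controls 13 to 15 days after treatment in the greenhouse. Plants received formulated chemical postemergence at the 1- to 4-leaf stage or, in flooded paddy, at the 2-leaf stage.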

cocklebur = test: Test B pre-/postemergence herbicide test; assay type: in vivo, Xanthium strumarium; details: for Cocklebur plant response rating (0 to 100 scale) / Plant response rating, Cocklebur: 0 = no effect, 100 = complete control, preemergence; for Plant response rating, Cocklebur / Cocklebur plant response rating: visual rating; for Cocklebur plant response rating: postemergence, scale 0 (no effect) to 100 (complete control)
Outline: as §3

giant foxtail = test: Test B pre-/postemergence herbicide test; assay type: in vivo, Setaria faberi; details: for Foxtail, Giant plant response rating (0 to 100 scale) / Plant response rating, Foxtail, Giant: 0 = no effect, 100 = complete control, preemergence; for Foxtail, Giant plant response rating: postemergence
Outline: as §4

pigweed = test: Test B pre-/postemergence herbicide test; assay type: in vivo, Amaranthus retroflexus; details: for Pigweed plant response rating (0 to 100 scale) / Plant response rating, Pigweed: 0 = no effect, 100 = complete control, preemergence; for Pigweed plant response rating: postemergence
Outline: as §4

barnyardgrass [4] = test: Test B flooded paddy test; assay type: in vivo, Echinochloa crus-galli; details: 1000 g ai/ha, scale 0 to 100 (0 no effect, 100 complete control)
Outline: as §2

morningglory = test: Test B pre-/postemergence herbicide test; assay type: in vivo, Ipomoea coccinea; details: for Morningglory plant response rating (0 to 100 scale) / Plant response rating, Morningglory: 0 = no effect, 100 = complete control, preemergence; for Morningglory plant response rating: postemergence
Outline: as §3

[5] = system: small flower umbrella sedge; test: Test B flooded paddy test; assay type: in vivo, Cyperus difformis; details: 1000 g ai/ha, scale 0 to 100 (0 no effect, 100 complete control)
Outline: as §2

[6] = 125 g ai/ha, visual rating, scale 0 (no effect) to 100 (complete control)
[7] = 500 g ai/ha, scale 0 to 100, 0 is no effect, 100 is complete control

CCCOC(=O)c1cc(NC(=O)c2cc(C(C)(C)C)nn2CC)c(F)cc1F [Compound 249]
Wheat plant response rating (wheat; [6]): 30
Wheat plant response rating (wheat; [7]): 30
Ducksalad plant response rating (ducksalad): 0
Barnyardgrass plant response rating (0 to 100 scale) (barnyardgrass [1]; 125 g ai/ha): 0
Plant response rating, Barnyardgrass (barnyardgrass [1]; 500 g ai/ha): 0
Barnyardgrass plant response rating (barnyardgrass [1]; 125 g ai/ha): 10
Barnyardgrass plant response rating (barnyardgrass [1]; 500 g ai/ha): 20
Oat, Wild plant response rating (wild oat; [6]): 30
Oat, Wild plant response rating (wild oat; [7]): 40
Crabgrass, Large plant response rating (0 to 100 scale) (large crabgrass; 125 g ai/ha): 0
Plant response rating, Crabgrass, Large (large crabgrass; 500 g ai/ha, visual rating): 0
Crabgrass, Large plant response rating (large crabgrass; [6]): 10
Crabgrass, Large plant response rating (large crabgrass; [7]): 30
Rice plant response rating (0 to 100 scale) (rice [2]): 0
Plant response rating, Rice (rice [2]): 0
Surinam Grass plant response rating (0 to 100 scale) (Surinam grass; 125 g ai/ha): 0
Plant response rating, Surinam Grass (Surinam grass; 500 g ai/ha, visual rating): 20
Surinam Grass plant response rating (Surinam grass; [6]): 10
Surinam Grass plant response rating (Surinam grass; [7]): 30
Velvetleaf plant response rating (0 to 100 scale) (velvetleaf; 125 g ai/ha): 0
Plant response rating, Velvetleaf (velvetleaf; 500 g ai/ha, visual rating): 0
Velvetleaf plant response rating (velvetleaf; [6]): 10
Velvetleaf plant response rating (velvetleaf; [7]): 20
Corn plant response rating (0 to 100 scale) (corn; 125 g ai/ha): 0
Plant response rating, Corn (corn; 500 g ai/ha, visual rating): 0
Corn plant response rating (corn; [6]): 10
Corn plant response rating (corn; [7]): 20
Blackgrass plant response rating (blackgrass; 125 g ai/ha): 20
Blackgrass plant response rating (blackgrass; 500 g ai/ha): 30
Lambsquarters plant response rating (0 to 100 scale) (lambsquarters; 125 g ai/ha, 0 = no effect, 100 = complete control, preemergence): 0
Lambsquarters plant response rating (lambsquarters; [6]): 10
Lambsquarters plant response rating (lambsquarters; [7]): 20
Rice plant response rating (rice [3]): 0
Cocklebur plant response rating (0 to 100 scale) (cocklebur; 125 g ai/ha): 0
Plant response rating, Cocklebur (cocklebur; 500 g ai/ha): 0
Cocklebur plant response rating (cocklebur; 125 g ai/ha): 30
Cocklebur plant response rating (cocklebur; 500 g ai/ha): 30
Foxtail, Giant plant response rating (0 to 100 scale) (giant foxtail; 125 g ai/ha): 0
Plant response rating, Foxtail, Giant (giant foxtail; 500 g ai/ha, visual rating): 0
Foxtail, Giant plant response rating (giant foxtail; [6]): 20
Foxtail, Giant plant response rating (giant foxtail; [7]): 30
Pigweed plant response rating (0 to 100 scale) (pigweed; 125 g ai/ha): 0
Plant response rating, Pigweed (pigweed; 500 g ai/ha, visual rating): 0
Pigweed plant response rating (pigweed; [6]): 20
Pigweed plant response rating (pigweed; [7]): 80
Barnyardgrass plant response rating (barnyardgrass [4]): 0
Morningglory plant response rating (0 to 100 scale) (morningglory; 125 g ai/ha): 0
Plant response rating, Morningglory (morningglory; 500 g ai/ha, visual rating): 10
Morningglory plant response rating (morningglory; [6]): 20
Morningglory plant response rating (morningglory; [7]): 30
Sedge, Umbrella plant response rating [5]: 30

CCN(C)C(=O)c1cc(NC(=O)c2cc(C(C)(C)C)nn2CC)c(F)cc1F [Compound 254]
Wheat plant response rating (wheat; [6]): 10
Wheat plant response rating (wheat; [7]): 20
Ducksalad plant response rating (ducksalad): 90
Barnyardgrass plant response rating (0 to 100 scale) (barnyardgrass [1]; 125 g ai/ha): 0
Plant response rating, Barnyardgrass (barnyardgrass [1]; 500 g ai/ha): 40
Barnyardgrass plant response rating (barnyardgrass [1]; 125 g ai/ha): 0
Barnyardgrass plant response rating (barnyardgrass [1]; 500 g ai/ha): 10
Oat, Wild plant response rating (wild oat; [6]): 20
Oat, Wild plant response rating (wild oat; [7]): 20
Crabgrass, Large plant response rating (0 to 100 scale) (large crabgrass; 125 g ai/ha): 10
Plant response rating, Crabgrass, Large (large crabgrass; 500 g ai/ha, visual rating): 100
Crabgrass, Large plant response rating (large crabgrass; [6]): 10
Crabgrass, Large plant response rating (large crabgrass; [7]): 10
Rice plant response rating (0 to 100 scale) (rice [2]): 0
Plant response rating, Rice (rice [2]): 20
Surinam Grass plant response rating (0 to 100 scale) (Surinam grass; 125 g ai/ha): 0
Plant response rating, Surinam Grass (Surinam grass; 500 g ai/ha, visual rating): 40
Surinam Grass plant response rating (Surinam grass; [6]): 10
Surinam Grass plant response rating (Surinam grass; [7]): 10
Velvetleaf plant response rating (0 to 100 scale) (velvetleaf; 125 g ai/ha): 0
Plant response rating, Velvetleaf (velvetleaf; 500 g ai/ha, visual rating): 20
Velvetleaf plant response rating (velvetleaf; [6]): 10
Velvetleaf plant response rating (velvetleaf; [7]): 10
Corn plant response rating (0 to 100 scale) (corn; 125 g ai/ha): 0
Plant response rating, Corn (corn; 500 g ai/ha, visual rating): 0
Corn plant response rating (corn; [6]): 0
Corn plant response rating (corn; [7]): 10
Blackgrass plant response rating (blackgrass; 125 g ai/ha): 0
Blackgrass plant response rating (blackgrass; 500 g ai/ha): 10
Plant response rating, Lambsquarters (lambsquarters; 500 g ai/ha, visual rating, 0 = no effect, 100 = complete control, preemergence): 100
Lambsquarters plant response rating (lambsquarters; [6]): 10
Lambsquarters plant response rating (lambsquarters; [7]): 20
Rice plant response rating (rice [3]): 80
Cocklebur plant response rating (0 to 100 scale) (cocklebur; 125 g ai/ha): 0
Plant response rating, Cocklebur (cocklebur; 500 g ai/ha): 0
Cocklebur plant response rating (cocklebur; 125 g ai/ha): 20
Cocklebur plant response rating (cocklebur; 500 g ai/ha): 20
Foxtail, Giant plant response rating (0 to 100 scale) (giant foxtail; 125 g ai/ha): 0
Plant response rating, Foxtail, Giant (giant foxtail; 500 g ai/ha, visual rating): 30
Foxtail, Giant plant response rating (giant foxtail; [6]): 0
Foxtail, Giant plant response rating (giant foxtail; [7]): 0
Pigweed plant response rating (0 to 100 scale) (pigweed; 125 g ai/ha): 0
Plant response rating, Pigweed (pigweed; 500 g ai/ha, visual rating): 100
Pigweed plant response rating (pigweed; [6]): 10
Pigweed plant response rating (pigweed; [7]): 30
Barnyardgrass plant response rating (barnyardgrass [4]): 30
Morningglory plant response rating (0 to 100 scale) (morningglory; 125 g ai/ha): 0
Plant response rating, Morningglory (morningglory; 500 g ai/ha, visual rating): 10
Morningglory plant response rating (morningglory; [6]): 20
Morningglory plant response rating (morningglory; [7]): 30
Sedge, Umbrella plant response rating [5]: 60
